# Measured values as given in ChEMBL document CHEMBL1144378, “Analogues of the neuroprotective tripeptide Gly-Pro-Glu (GPE): synthesis and structure-activity relationships” (Bioorg Med Chem Lett, 2005).
# Active and inactive are the calls of the source. The rule behind the calls is not given here.
# Key:
# [1] = target: Glutamate NMDA receptor (Rattus norvegicus) (UniProt P35439+Q00959+Q00960+Q00961+Q62645+Q8VHN2+Q9R1M7); assay: Displacement of L-[3H]glutamate from N-methyl-D-aspartate glutamate receptor in rat brain synaptic membranes; No displacement up to 100 uM; type: cell membranes; conditions: Membrane
# [2] = target: Glutamate NMDA receptor; assay: Displacement of L-[3H]glutamate from N-methyl-D-aspartate glutamate receptor in rat brain synaptic membranes; type: cell membranes, Membrane
Activity [1],Compound,Ki [2] [µM]
inactive,NCC(=O)N1CCC[C@@H]1C(=O)N[C@@H](CCC(=O)O)C(=O)O,–
inactive,NCC(=O)N1CCC[C@@H]1C(=O)N[C@H](CCC(=O)O)C(=O)O,–
inactive,NCC(=O)N1CCC[C@H]1C(=O)N[C@H](CCC(=O)O)C(=O)O,–
inactive,NCC(=O)N1CCC[C@H]1C(=O)N[C@H](CC(=O)O)C(=O)O,–
inactive,NCC(=O)N1CCC[C@H]1C(=O)N[C@@H](CC(=O)O)C(=O)O,–
inactive,NCC(=O)N1CCC[C@H]1C(=O)N[C@@H](CCCC(=O)O)C(=O)O,–
inactive,CC1(C)SC[C@H](C(=O)N[C@@H](CCC(=O)O)C(=O)O)N1C(=O)CN,–
inactive,NCC(=O)N1CSC[C@@H]1C(=O)N[C@@H](CCC(=O)O)C(=O)O,–
inactive,NCC(=O)N1CCC[C@H]1C(=O)N[C@H](CCCC(=O)O)C(=O)O,–
–,N[C@H](CCCP(=O)(O)O)C(=O)O,3.83
